Measured values from patent US8530650B2, “2, 5-diamino-substituted pyrido [4, 3-D] pyrimidines as autotaxin inhibitors against cancer” (MERCK PATENT GmbH, priority 2008, dated 2013).

These compounds were tested against T1, recombinant autotaxin (Homo sapiens, UniProt Q13822) (assay: Autotaxin assay (Amplex Red, LPC substrate)). Conditions: 75 μM LPC, Amplex Red fluorescence, ten 1:3 dilutions starting at 30 μM.
T1 construct: made in house; host or cells: Hi5 insect cells (baculovirus)
Format: biochemical
Outline: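 Baculovirus (Hi5)-expressed autotaxin (16 ng) was preincubated with compound 30 min at 22° C., then reacted with 75 μM final egg LPC for 90 min at 37° C.; choline released was coupled via choline oxidase/peroxidase to Amplex Red, fluorescence read kinetically (ex 485/em 612 nm). IC50 from 10-point 1:3 dilutions from 30 μM, duplicates, normalized to 500 μM C14 LPA as 0%.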

Row | Structure (SMILES) | IC50
1 | Fc1ccccc1Nc1nccc2nc(NCc3ccccc3Cl)ncc12 [Compound 100, N2-(2-Chloro-benzyl)-N5-(2-fluoro-phenyl)-pyrido[4,3-d]pyrimidine-2,5-diamine] | < 10 µM
2 | CCOCCCNC(=O)C1CCN(c2nccc3nc(NCc4ccccc4OC)ncc23)CC1 [Compound 102, 1-[2-(2-Methoxy-benzylamino)-pyrido[4,3-d]pyrimidin-5-yl]-piperidine-4-carboxylic acid (3-ethoxy-propyl)-amide] | < 30 µM
3 | CCN(CC)C(=O)C1CCN(c2nccc3nc(NCc4ccccc4OC)ncc23)CC1 [Compound 103, 1-[2-(2-Methoxy-benzylamino)-pyrido[4,3-d]pyrimidin-5-yl]-piperidine-4-carboxylic acid diethylamide] | < 10 µM
4 | CN1CCN(C(=O)C2CCCN(c3nccc4nc(NCc5ccccc5Cl)ncc34)C2)CC1 (centres unmarked) [Compound 104, {1-[2-(2-Chloro-benzylamino)-pyrido[4,3-d]pyrimidin-5-yl]-piperidin-3-yl}-(4-methyl-piperazin-1-yl)-methanone] | < 30 µM
5 | O=C(NCCO)C1CCN(c2nccc3nc(NCc4ccccc4Cl)ncc23)CC1 [Compound 105, 1-[2-(2-Chloro-benzylamino)-pyrido[4,3-d]pyrimidin-5-yl]-piperidine-4-carboxylic acid (2-hydroxy-ethyl)-amide] | < 30 µM
6 | O=C(CN1CCN(c2nccc3nc(NCc4ccccc4Cl)ncc23)CC1)Nc1cccnc1 [Compound 108, 2-{4-[2-(2-Chloro-benzylamino)-pyrido[4,3-d]pyrimidin-5-yl]-piperazin-1-yl}-N-pyridin-3-yl-acetamide] | < 10 µM
7 | Clc1ccccc1CNc1ncc2c(N3CCN(c4ncccn4)CC3)nccc2n1 [Compound 112, (2-Chloro-benzyl)-[5-(4-pyrimidin-2-yl-piperazin-1-yl)-pyrido[4,3-d]pyrimidin-2-yl]-amine] | < 30 µM
8 | O=C(c1ccco1)N1CCN(c2nccc3nc(NCc4ccccc4Cl)ncc23)CC1 [Compound 113, {4-[2-(2-Chloro-benzylamino)-pyrido[4,3-d]pyrimidin-5-yl]-piperazin-1-yl}-furan-2-yl-methanone] | < 5 µM
9 | CC(=O)N1CCN(c2nccc3nc(NCc4ccccc4Cl)ncc23)CC1 [Compound 115, 1-{4-[2-(2-Chloro-benzylamino)-pyrido[4,3-d]pyrimidin-5-yl]-piperazin-1-yl}-ethanone] | < 30 µM
10 | O=C(N1CCOCC1)N1CCN(c2nccc3nc(NCc4ccccc4Cl)ncc23)CC1 [Compound 116, {4-[2-(2-Chloro-benzylamino)-pyrido[4,3-d]pyrimidin-5-yl]-piperazin-1-yl}-morpholin-4-yl-methanone] | < 5 µM
11 | O=C(NCc1ccco1)N1CCN(c2nccc3nc(NCc4ccccc4Cl)ncc23)CC1 [Compound 117, 4-[2-(2-Chloro-benzylamino)-pyrido[4,3-d]pyrimidin-5-yl]-piperazine-1-carboxylic acid (furan-2-ylmethyl)-amide] | < 30 µM
12 | O=C(CCc1c[nH]cn1)N1CCN(c2nccc3nc(NCc4ccccc4Cl)ncc23)CC1 [Compound 122, 1-{4-[2-(2-Chloro-benzylamino)-pyrido[4,3-d]pyrimidin-5-yl]-piperazin-1-yl}-3-(1H-imidazol-4-yl)-propan-1-one] | < 5 µM
13 | CN(C)C(=O)CCC(=O)N1CCN(c2nccc3nc(NCc4ccccc4Cl)ncc23)CC1 [Compound 125, 4-{4-[2-(2-Chloro-benzylamino)-pyrido[4,3-d]pyrimidin-5-yl]-piperazin-1-yl}-N,N-dimethyl-4-oxo-butyramide] | < 30 µM
14 | O=C(O)C1CCN(c2nccc3nc(NCc4ccccc4Cl)ncc23)CC1 [Compound 127, 1-[2-(2-Chloro-benzylamino)-pyrido[4,3-d]pyrimidin-5-yl]-piperidine-4-carboxylic acid] | < 5 µM
15 | N[C@H]1CCN(CC(=O)N2CCN(c3nccc4nc(NCc5ccccc5Cl)ncc34)CC2)C1=O [Compound 133, (S)-3-Amino-1-(2-{4-[2-(2-chloro-benzylamino)-pyrido[4,3-d]pyrimidin-5-yl]-piperazin-1-yl}-2-oxo-ethyl)-pyrrolidin-2-one] | < 30 µM
16 | O=C(Cc1ccncc1)N1CCN(c2nccc3nc(NCc4ccccc4Cl)ncc23)CC1 [Compound 138, 1-{4-[2-(2-Chloro-benzylamino)-pyrido[4,3-d]pyrimidin-5-yl]-piperazin-1-yl}-2-pyridin-4-yl-ethanone] | < 30 µM
17 | CN(C)C(=O)C1CCN(c2nccc3nc(NCc4ccccc4Cl)ncc23)CC1 [Compound 140, 1-[2-(2-Chloro-benzylamino)-pyrido[4,3-d]pyrimidin-5-yl]-piperidine-4-carboxylic acid dimethylamide] | < 30 µM
18 | O=C(NCc1ccc(F)cc1Cl)C1CCN(c2nccc3nc(NCc4ccccc4Cl)ncc23)CC1 [Compound 144, 1-[2-(2-Chloro-benzylamino)-pyrido[4,3-d]pyrimidin-5-yl]-piperidine-4-carboxylic acid 2-chloro-4-fluoro-benzylamide] | < 30 µM

Other lines, results leading:

Row | IC50 | Structure (SMILES)
19 | < 10 µM | CCCN1CCN(C(=O)C2CCN(c3nccc4nc(NCc5ccccc5Cl)ncc34)CC2)CC1 [Compound 97, {1-[2-(2-Chloro-benzylamino)-pyrido[4,3-d]pyrimidin-5-yl]-piperidin-4-yl}-(4-propyl-piperazin-1-yl)-methanone]
20 | < 5 µM | CCOCCCNC(=O)C1CCN(c2nccc3nc(NCc4ccccc4Cl)ncc23)CC1 [Compound 98, 1-[2-(2-Chloro-benzylamino)-pyrido[4,3-d]pyrimidin-5-yl]-piperidine-4-carboxylic acid (3-ethoxy-propyl)-amide]
21 | < 5 µM | O=C(C1CCCN(c2nccc3nc(NCc4ccccc4Cl)ncc23)C1)N1CCN(c2ccccn2)CC1 (centres unmarked) [Compound 99, {1-[2-(2-Chloro-benzylamino)-pyrido[4,3-d]pyrimidin-5-yl]-piperidin-3-yl}-(4-pyridin-2-yl-piperazin-1-yl)-methanone]
22 | < 30 µM | CCOC(=O)CCNC(=O)C1CCN(c2nccc3nc(NCc4ccccc4Cl)ncc23)CC1 [Compound 101, 3-({1-[2-(2-Chloro-benzylamino)-pyrido[4,3-d]pyrimidin-5-yl]-piperidine-4-carbonyl}-amino)-propionic acid ethyl ester]
23 | < 5 µM | Fc1ccc(N2CCN(c3nccc4nc(NCc5ccccc5Cl)ncc34)CC2)cc1 [Compound 106, (2-Chloro-benzyl)-{5-[4-(4-fluoro-phenyl)-piperazin-1-yl]-pyrido[4,3-d]pyrimidin-2-yl}-amine]
24 | < 5 µM | NC(=O)C1CCN(c2nccc3nc(NCc4ccccc4Cl)ncc23)CC1 [Compound 107, 1-[2-(2-Chloro-benzylamino)-pyrido[4,3-d]pyrimidin-5-yl]-piperidine-4-carboxylic acid amide]
25 | < 10 µM | Clc1ccccc1CNc1ncc2c(N3CCN(c4nccs4)CC3)nccc2n1 [Compound 109, (2-Chloro-benzyl)-[5-(4-thiazol-2-yl-piperazin-1-yl)-pyrido[4,3-d]pyrimidin-2-yl]amine]
26 | < 5 µM | CCOC(=O)N1CCN(c2nccc3nc(NCc4ccccc4Cl)ncc23)CC1 [Compound 114, 4-[2-(2-Chloro-benzylamino)-pyrido[4,3-d]pyrimidin-5-yl]-piperazine-1-carboxylic acid ethyl ester]
27 | < 5 µM | O=C(Cc1ccccn1)N1CCN(c2nccc3nc(NCc4ccccc4Cl)ncc23)CC1 [Compound 119, 1-{4-[2-(2-Chloro-benzylamino)-pyrido[4,3-d]pyrimidin-5-yl]-piperazin-1-yl}-2-pyridin-2-yl-ethanone]
28 | < 30 µM | Cn1cc(CCC(=O)N2CCN(c3nccc4nc(NCc5ccccc5Cl)ncc34)CC2)cn1 [Compound 120, 1-{4-[2-(2-Chloro-benzylamino)-pyrido[4,3-d]pyrimidin-5-yl]-piperazin-1-yl}-3-(1-methyl-1H-pyrazol-4-yl)-propan-1-one]
29 | < 5 µM | O=C(Cc1cccnc1)N1CCN(c2nccc3nc(NCc4ccccc4Cl)ncc23)CC1 [Compound 121, 1-{4-[2-(2-Chloro-benzylamino)-pyrido[4,3-d]pyrimidin-5-yl]-piperazin-1-yl}-2-pyridin-3-yl-ethanone]
30 | < 30 µM | CC(=O)CCC(=O)N1CCN(c2nccc3nc(NCc4ccccc4Cl)ncc23)CC1 [Compound 123, 1-{4-[2-(2-Chloro-benzylamino)-pyrido[4,3-d]pyrimidin-5-yl]-piperazin-1-yl}-pentane-1,4-dione]
31 | < 5 µM | CC(=O)OCC(=O)N1CCN(c2nccc3nc(NCc4ccccc4Cl)ncc23)CC1 [Compound 126, Acetic acid 2-{4-[2-(2-chloro-benzylamino)-pyrido[4,3-d]pyrimidin-5-yl]-piperazin-1-yl}-2-oxo-ethyl ester]
32 | < 30 µM | N#CCC(=O)N1CCN(c2nccc3nc(NCc4ccccc4Cl)ncc23)CC1 [Compound 128, 3-{4-[2-(2-Chloro-benzylamino)-pyrido[4,3-d]pyrimidin-5-yl]-piperazin-1-yl}-3-oxo-propionitrile]
33 | < 30 µM | COCCOCC(=O)N1CCN(c2nccc3nc(NCc4ccccc4Cl)ncc23)CC1 [Compound 136, 1-{4-[2-(2-Chloro-benzylamino)-pyrido[4,3-d]pyrimidin-5-yl]-piperazin-1-yl}-2-(2-methoxy-ethoxy)-ethanone]
34 | < 30 µM | CNC(=O)C1CCN(c2nccc3nc(NCc4ccccc4Cl)ncc23)CC1 [Compound 139, 1-[2-(2-Chloro-benzylamino)-pyrido[4,3-d]pyrimidin-5-yl]-piperidine-4-carboxylic acid methylamide]
35 | < 30 µM | O=C(C1CCN(c2nccc3nc(NCc4ccccc4Cl)ncc23)CC1)N1CCC[C@H]1CN1CCCC1 [Compound 142, {1-[2-(2-Chloro-benzylamino)-pyrido[4,3-d]pyrimidin-5-yl]-piperidin-4-yl}-((S)-2-pyrrolidin-1-ylmethyl-pyrrolidin-1-yl)-methanone]
